From US20160235708A1, “TOPICAL PIGMENTORY COMPOSITION” (priority 2013, published 2016)

Columns and labels:
[1] = tested on: normal skin surrounding the vitiligo lesion; assay: Topical psoralen / PUVA therapy of vitiligo lesions: skin reaction around the lesion; type: in vivo
Description: FIG. 1 A depicts hyper pigmentation surrounding vitiligo lesion following topical Psoralen therapy

vitiligo = details: monotherapy without ultra violet exposure; personal observation of N Ostovari; cited from earlier work

Row | SMILES | Pigmentory change surrounding the vitiligo lesion (FIG. 1A) ([1]; following topical use) | Skin reaction surrounding the vitiligo lesion (FIG. 1B) ([1]; two applications of 1.0% solution at alternate days, topical PUVA therapy) | Repigmenting potential (vitiligo)
1 | COc1c2occc2cc2ccc(=O)oc12 [8 methoxypsoralen, 9-methoxy-7H-furo[3,2-g][1]-benzopyran-7-one] | hyperpigmentation | Erythematous photo toxic reaction | 
2 | C=CC[C@@H]1/C=C(\C)C[C@H](C)C[C@H](OC)[C@H]2O[C@@](O)(C(=O)C(=O)N3CCCC[C@H]3C(=O)O[C@H](/C(C)=C/[C@@H]3CC[C@@H](O)[C@H](OC)C3)[C@H](C)[C@@H](O)CC1=O)[C@H](C)C[C@@H]2OC [tacrolimus] |  |  | little or no repigmenting potential
